Legend:
[1] = target: Tubulin alpha chain (Sus scrofa) (UniProt P02550); assay: Tested for the reduction of the supernatant protein concentration by tubulin assembly assay; format: functional
[2] = Ratio between ED50 of compound and ED50 of taxol; format: functional

Tubulin alpha chain (Sus scrofa), sequence (P02550 whole entry, looked up): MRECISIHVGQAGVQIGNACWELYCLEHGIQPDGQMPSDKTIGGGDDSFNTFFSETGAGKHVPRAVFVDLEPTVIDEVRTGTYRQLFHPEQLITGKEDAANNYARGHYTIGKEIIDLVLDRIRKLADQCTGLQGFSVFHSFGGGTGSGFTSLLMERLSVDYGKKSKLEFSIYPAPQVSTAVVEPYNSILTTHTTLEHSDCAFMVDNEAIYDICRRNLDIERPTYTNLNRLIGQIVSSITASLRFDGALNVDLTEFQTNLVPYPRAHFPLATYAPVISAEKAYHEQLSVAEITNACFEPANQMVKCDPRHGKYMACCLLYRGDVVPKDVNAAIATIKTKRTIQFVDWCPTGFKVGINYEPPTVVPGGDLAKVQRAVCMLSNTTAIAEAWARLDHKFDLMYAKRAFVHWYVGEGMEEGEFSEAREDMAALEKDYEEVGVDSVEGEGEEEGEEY

| ED50 [1] [µM] | Structure (SMILES) | Ratio [2] |
| --- | --- | --- |
| > 25 | CC(=O)O[C@@]12CO[C@@H]1C[C@H](O)[C@@]1(C)C(=O)[C@H](O)C3=C(C)[C@@H](OC(=O)[C@H](O)[C@@H](NC(=O)OC(C)(C)C)c4ccccc4)C[C@@](O)([C@@H](OC(=O)c4ccccc4)[C@H]21)C3(C)C | > 27 |
| 0.93 | CC(=O)O[C@H]1C(=O)[C@@]2(C)[C@H]([C@H](OC(=O)c3ccccc3)[C@]3(O)C[C@H](OC(=O)[C@H](O)[C@@H](NC(=O)c4ccccc4)c4ccccc4)C(C)=C1C3(C)C)[C@]1(OC(C)=O)CO[C@@H]1C[C@@H]2O | 1 |

| Structure (SMILES) | ED50 [1] [µM] | Ratio [2] |
| --- | --- | --- |
| CC(=O)O[C@@]12CO[C@@H]1C[C@H](O)[C@@]1(C)C(=O)[C@H](O)C3=C(C)[C@@H](OC(=O)[C@H](O)C(NC(=O)c4ccccc4)c4ccccc4)C[C@@](O)([C@@H](OC(=O)c4ccccc4)C12)C3(C)C (stereo partly specified) | > 25 | > 27 |
